# Earlier results, collected in patent publication US20250073243A1, “LOW BACK PAIN TREATMENT” (Persica Pharmaceuticals Ltd., priority 2021, published 2025).
# Tests used:
# [1] = oral administration; patients with chronic LBP
Molecule,Cmax observed for a standard linezolid dose (standard 600 mg linezolid dose),half-life of standard linezolid administration (standard linezolid administration),minimum inhibitory concentration (MIC) (Gram-positive bacteria),improvement in outcome measures [1]
"CC(=O)NC[C@H]1CN(c2ccc(N3CCOCC3)c(F)c2)C(=O)O1 [linezolid, (S)—N-((3-(3-fluoro-4-morpholinophenyl)-2-oxooxazolidin-5-yl)methyl) acetamide]",approximately 15 μg/ml,4 to 5 h,1 µg/mL,–
amoxicillin-clavulanate,–,–,–,clinically important and statistically significant (p<0.001) improvement in all outcome measures
